According to ChEMBL document CHEMBL4024706 (Eur J Med Chem, 2017):

Assays:
[1] = target: Serine/threonine-protein kinase ICK (Homo sapiens) (UniProt Q9UPZ9); experiment: Inhibition of wild-type human partial length ICK (M1 to P314 residues) expressed in mammalian expression system assessed as residual activity at 1 uM by Kinomescan method relative to control
[2] = target: Fibroblast growth factor receptor 4 (Homo sapiens) (UniProt P22455); experiment: Inhibition of wild-type human partial length FGFR4 (G402 to E713 residues) expressed in bacterial expression system assessed as residual activity at 1 uM by Kinomescan method relative to control
[3] = target: Phosphatidylinositol 3-kinase C2 domain-containing subunit gamma (Homo sapiens) (UniProt O75747); experiment: Inhibition of wild-type human partial length PIK3C2G (M1 to I1446 residues) expressed in mammalian expression system assessed as residual activity at 1 uM by Kinomescan method relative to control
[4] = target: RAC-alpha serine/threonine-protein kinase (Homo sapiens) (UniProt P31749); experiment: Inhibition of wild-type human partial length AKT1 expressed in bacterial expression system assessed as residual activity at 1 uM by Kinomescan method relative to control
[5] = tested on: Epidermal growth factor receptor (Homo sapiens), P00533 [T790M]; experiment: Inhibition of human partial length EGFR T790M mutant (R669 to G1022 residues) expressed in mammalian expression system assessed as residual activity at 1 uM by Kinomescan method relative to control
[6] = target: Cyclin-dependent kinase 8 (Homo sapiens) (UniProt P49336); experiment: Inhibition of wild-type human partial length CDK8 (M1 to T360 residues) expressed in bacterial expression system assessed as residual activity at 1 uM by Kinomescan method relative to control
[7] = target: Cyclin-dependent kinase 13 (Homo sapiens) (UniProt Q14004); experiment: Inhibition of wild-type human partial length CDC2L5 (H675 to S1054 residues) expressed in mammalian expression system assessed as residual activity at 1 uM by Kinomescan method relative to control
[8] = target: Phosphorylase b kinase gamma catalytic chain, skeletal muscle/heart isoform (Homo sapiens) (UniProt Q16816); experiment: Inhibition of wild-type human full length PHKG1 (M1 to Y387 residues) expressed in bacterial expression system assessed as residual activity at 1 uM by Kinomescan method relative to control
[9] = tested on: eIF-2-alpha kinase GCN2 (Homo sapiens), Q9P2K8 [S808G]; experiment: Inhibition of […] human partial length GCN2 kinase domain 2 (R585 to T1018 residues) S808G mutant expressed in bacterial expression system assessed as residual activity at 1 uM by Kinomescan method relative to control
[10] = target: Tyrosine-protein kinase HCK (Homo sapiens) (UniProt P08631); experiment: Inhibition of wild-type human full length HCK (M22 to P526 residues) expressed in bacterial expression system assessed as residual activity at 1 uM by Kinomescan method relative to control
[11] = target: Interleukin-1 receptor-associated kinase 4 (Homo sapiens) (UniProt Q9NWZ3); experiment: Inhibition of wild-type human partial length IRAK4 (M1 to S460 residues) expressed in mammalian expression system assessed as residual activity at 1 uM by Kinomescan method relative to control
[12] = target: Serine/threonine-protein kinase PAK 5 (Homo sapiens) (UniProt Q9P286); experiment: Inhibition of wild-type human partial length PAK7 (Y400 to H719 residues) expressed in bacterial expression system assessed as residual activity at 1 uM by Kinomescan method relative to control
[13] = target: Ribosomal protein S6 kinase beta-1 (Homo sapiens) (UniProt P23443); experiment: Inhibition of wild-type human partial length S6K1 (M1 to S421 residues) expressed in mammalian expression system assessed as residual activity at 1 uM by Kinomescan method relative to control
[14] = target: Serine/threonine-protein kinase TAO2 (Homo sapiens) (UniProt Q9UL54); experiment: Inhibition of wild-type human partial length TAOK2 (M1 to A320 residues) expressed in mammalian expression system assessed as residual activity at 1 uM by Kinomescan method relative to control
[15] = target: Activin receptor type-2A (Homo sapiens) (UniProt P27037); experiment: Inhibition of wild-type human ACVR2A (V171 to T499 residues) expressed in bacterial expression system assessed as residual activity at 1 uM by Kinomescan method relative to control
[16] = target: Cyclin-dependent kinase-like 3 (Homo sapiens) (UniProt Q8IVW4); experiment: Inhibition of wild-type human partial length CDKL3 (M1 to D327 residues) expressed in bacterial expression system assessed as residual activity at 1 uM by Kinomescan method relative to control
[17] = target: Ribosomal protein S6 kinase alpha-3 (Homo sapiens) (UniProt P51812); experiment: Inhibition of wild-type human partial length N-terminal RSK2 kinase domain 1 (M1 to D394 residues) expressed in mammalian expression system assessed as residual activity at 1 uM by Kinomescan method relative to control
[18] = tested on: Phosphatidylinositol 4,5-bisphosphate 3-kinase catalytic subunit alpha isoform (Homo sapiens), P42336 [C420R]; experiment: Inhibition of human partial length PIK3CA C420R mutant (R108 to N1068 residues) expressed in mammalian expression system assessed as residual activity at 1 uM by Kinomescan method relative to control
[19] = target: Rho-associated protein kinase 2 (Homo sapiens) (UniProt O75116); experiment: Inhibition of wild-type human partial length ROCK2 (M1 to T431 residues) expressed in mammalian expression system assessed as residual activity at 1 uM by Kinomescan method relative to control
[20] = target: Tyrosine-protein kinase Tec (Homo sapiens) (UniProt P42680); experiment: Inhibition of wild-type human partial length TEC (L341 to D620 residues) expressed in bacterial expression system assessed as residual activity at 1 uM by Kinomescan method relative to control
[21] = target: Macrophage colony-stimulating factor 1 receptor (Homo sapiens) (UniProt P07333); experiment: Inhibition of wild-type human partial length CSF1R (I564 to S939 residues) expressed in bacterial expression system assessed as residual activity at 1 uM by Kinomescan method relative to control
[22] = target: Serine/threonine-protein kinase WNK4 (Homo sapiens) (UniProt Q96J92); experiment: Inhibition of wild-type human partial length WNK4 (A31 to D461 residues) expressed in mammalian expression system assessed as residual activity at 1 uM by Kinomescan method relative to control
[23] = target: Tyrosine-protein kinase ABL1 (Homo sapiens) (UniProt P00519); experiment: Inhibition of wild-type human phosphorylated ABL1 (S229 to K512 residues) expressed in mammalian expression system assessed as residual activity at 1 uM by Kinomescan method relative to control
[24] = target: Tyrosine-protein kinase BTK (Homo sapiens, UniProt Q06187); experiment: Reversible inhibition of full length recombinant human N-terminal His tagged […] expressed in baculovirus infected Sf9 insect cells using poly (Glu,Tyr)4:1 as substrate pretreated for 2 to 60 mins followed by substrate addition after 1 hr by ADP-Glo luminescence assay
[25] = tested on: Tyrosine-protein kinase ABL1 (Homo sapiens), P00519 [F317I]; experiment: Inhibition of human non-phosphorylated ABL1 F317I mutant (S229 to K512 residues) expressed in mammalian expression system assessed as residual activity at 1 uM by Kinomescan method relative to control

Sequence of RAC-alpha serine/threonine-protein kinase (Homo sapiens) (P31749 whole entry, the tested form may be a part): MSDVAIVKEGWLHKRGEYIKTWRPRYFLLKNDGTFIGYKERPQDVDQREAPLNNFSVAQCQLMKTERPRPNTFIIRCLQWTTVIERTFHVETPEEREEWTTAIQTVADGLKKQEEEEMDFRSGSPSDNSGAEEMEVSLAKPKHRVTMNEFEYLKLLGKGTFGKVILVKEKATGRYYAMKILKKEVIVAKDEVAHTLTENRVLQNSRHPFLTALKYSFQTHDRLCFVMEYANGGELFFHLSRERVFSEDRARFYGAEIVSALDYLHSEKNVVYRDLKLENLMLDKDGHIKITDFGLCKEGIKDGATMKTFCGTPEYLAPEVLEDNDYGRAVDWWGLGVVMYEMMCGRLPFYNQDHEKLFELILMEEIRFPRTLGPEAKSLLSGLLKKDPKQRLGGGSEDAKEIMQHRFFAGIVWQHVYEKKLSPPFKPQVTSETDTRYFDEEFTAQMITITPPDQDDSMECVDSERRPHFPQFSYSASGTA
Sequence of Serine/threonine-protein kinase PAK 5 (Homo sapiens) (Q9P286 whole entry, looked up, the tested form may be a part): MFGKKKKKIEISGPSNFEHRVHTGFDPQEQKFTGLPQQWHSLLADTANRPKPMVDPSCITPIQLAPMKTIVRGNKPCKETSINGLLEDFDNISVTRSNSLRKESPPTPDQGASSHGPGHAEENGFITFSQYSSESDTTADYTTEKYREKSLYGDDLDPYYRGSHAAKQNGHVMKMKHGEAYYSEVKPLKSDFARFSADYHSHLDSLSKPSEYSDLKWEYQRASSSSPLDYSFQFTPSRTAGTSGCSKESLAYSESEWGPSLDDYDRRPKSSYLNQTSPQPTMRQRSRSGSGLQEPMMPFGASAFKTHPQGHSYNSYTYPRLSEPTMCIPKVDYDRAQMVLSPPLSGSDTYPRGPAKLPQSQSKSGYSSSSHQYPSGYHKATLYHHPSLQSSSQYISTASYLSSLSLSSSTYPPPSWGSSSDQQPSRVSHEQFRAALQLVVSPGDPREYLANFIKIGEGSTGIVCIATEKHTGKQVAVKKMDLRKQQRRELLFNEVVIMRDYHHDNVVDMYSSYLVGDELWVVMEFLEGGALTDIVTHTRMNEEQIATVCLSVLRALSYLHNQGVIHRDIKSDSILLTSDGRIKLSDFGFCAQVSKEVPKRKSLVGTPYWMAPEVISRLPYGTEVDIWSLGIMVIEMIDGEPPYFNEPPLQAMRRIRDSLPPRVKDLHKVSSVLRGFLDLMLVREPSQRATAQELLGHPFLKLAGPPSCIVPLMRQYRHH
Sequence of Interleukin-1 receptor-associated kinase 4 (Homo sapiens) (Q9NWZ3 whole entry, the tested form may be a part): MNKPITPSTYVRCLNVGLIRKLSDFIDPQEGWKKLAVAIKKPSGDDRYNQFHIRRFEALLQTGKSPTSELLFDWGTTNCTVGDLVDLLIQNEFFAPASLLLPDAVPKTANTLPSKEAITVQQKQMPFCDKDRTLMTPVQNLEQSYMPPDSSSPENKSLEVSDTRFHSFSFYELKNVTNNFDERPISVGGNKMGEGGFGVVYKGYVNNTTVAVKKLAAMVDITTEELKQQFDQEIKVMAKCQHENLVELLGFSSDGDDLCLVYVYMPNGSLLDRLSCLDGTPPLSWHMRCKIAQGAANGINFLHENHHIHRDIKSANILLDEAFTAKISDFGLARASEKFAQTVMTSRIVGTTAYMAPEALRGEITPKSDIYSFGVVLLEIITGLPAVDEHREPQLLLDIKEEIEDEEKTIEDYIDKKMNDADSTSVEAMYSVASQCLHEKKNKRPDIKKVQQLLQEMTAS
Sequence of Macrophage colony-stimulating factor 1 receptor (Homo sapiens) (P07333 whole entry, the tested form may be a part): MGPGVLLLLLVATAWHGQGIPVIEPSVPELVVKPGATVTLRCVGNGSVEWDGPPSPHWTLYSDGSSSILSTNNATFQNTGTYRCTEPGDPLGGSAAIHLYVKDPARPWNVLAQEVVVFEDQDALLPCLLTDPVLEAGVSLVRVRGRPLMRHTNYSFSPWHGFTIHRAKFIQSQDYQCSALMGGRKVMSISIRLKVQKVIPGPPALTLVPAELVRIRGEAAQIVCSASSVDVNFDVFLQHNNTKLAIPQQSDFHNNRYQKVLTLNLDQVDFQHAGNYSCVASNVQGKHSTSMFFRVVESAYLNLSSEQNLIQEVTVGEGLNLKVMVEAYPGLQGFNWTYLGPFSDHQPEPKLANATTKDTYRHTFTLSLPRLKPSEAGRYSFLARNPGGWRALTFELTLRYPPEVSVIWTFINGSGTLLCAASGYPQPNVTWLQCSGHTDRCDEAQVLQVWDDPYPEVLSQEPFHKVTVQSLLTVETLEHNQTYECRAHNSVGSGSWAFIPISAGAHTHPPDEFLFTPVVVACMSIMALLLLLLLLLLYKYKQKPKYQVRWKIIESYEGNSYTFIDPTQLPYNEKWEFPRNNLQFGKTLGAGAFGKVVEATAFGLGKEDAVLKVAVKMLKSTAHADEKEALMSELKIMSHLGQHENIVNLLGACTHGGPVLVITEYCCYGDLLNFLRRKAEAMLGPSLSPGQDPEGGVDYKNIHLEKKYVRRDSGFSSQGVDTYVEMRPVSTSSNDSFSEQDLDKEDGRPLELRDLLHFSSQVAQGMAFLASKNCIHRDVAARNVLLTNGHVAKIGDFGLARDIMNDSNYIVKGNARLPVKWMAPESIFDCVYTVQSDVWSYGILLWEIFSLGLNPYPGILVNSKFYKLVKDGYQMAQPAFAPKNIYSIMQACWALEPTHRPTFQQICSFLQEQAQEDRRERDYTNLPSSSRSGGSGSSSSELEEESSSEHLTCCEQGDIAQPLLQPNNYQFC
Sequence of Activin receptor type-2A (Homo sapiens) (P27037 whole entry, the tested form may be a part): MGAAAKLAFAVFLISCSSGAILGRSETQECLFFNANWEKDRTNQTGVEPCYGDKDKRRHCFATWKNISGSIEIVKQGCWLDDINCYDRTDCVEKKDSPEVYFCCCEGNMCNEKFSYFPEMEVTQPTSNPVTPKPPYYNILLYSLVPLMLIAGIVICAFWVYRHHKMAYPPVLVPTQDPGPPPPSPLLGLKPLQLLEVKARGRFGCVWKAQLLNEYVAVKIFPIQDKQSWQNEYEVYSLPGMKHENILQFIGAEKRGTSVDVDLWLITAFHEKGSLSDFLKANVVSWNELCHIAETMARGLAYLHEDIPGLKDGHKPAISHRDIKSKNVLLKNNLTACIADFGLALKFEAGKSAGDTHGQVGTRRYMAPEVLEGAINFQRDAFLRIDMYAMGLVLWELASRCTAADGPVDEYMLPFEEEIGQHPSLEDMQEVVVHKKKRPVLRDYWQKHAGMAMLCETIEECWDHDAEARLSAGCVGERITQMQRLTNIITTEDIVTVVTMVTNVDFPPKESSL
Sequence of Serine/threonine-protein kinase ICK (Homo sapiens) (Q9UPZ9 whole entry, the tested form may be a part): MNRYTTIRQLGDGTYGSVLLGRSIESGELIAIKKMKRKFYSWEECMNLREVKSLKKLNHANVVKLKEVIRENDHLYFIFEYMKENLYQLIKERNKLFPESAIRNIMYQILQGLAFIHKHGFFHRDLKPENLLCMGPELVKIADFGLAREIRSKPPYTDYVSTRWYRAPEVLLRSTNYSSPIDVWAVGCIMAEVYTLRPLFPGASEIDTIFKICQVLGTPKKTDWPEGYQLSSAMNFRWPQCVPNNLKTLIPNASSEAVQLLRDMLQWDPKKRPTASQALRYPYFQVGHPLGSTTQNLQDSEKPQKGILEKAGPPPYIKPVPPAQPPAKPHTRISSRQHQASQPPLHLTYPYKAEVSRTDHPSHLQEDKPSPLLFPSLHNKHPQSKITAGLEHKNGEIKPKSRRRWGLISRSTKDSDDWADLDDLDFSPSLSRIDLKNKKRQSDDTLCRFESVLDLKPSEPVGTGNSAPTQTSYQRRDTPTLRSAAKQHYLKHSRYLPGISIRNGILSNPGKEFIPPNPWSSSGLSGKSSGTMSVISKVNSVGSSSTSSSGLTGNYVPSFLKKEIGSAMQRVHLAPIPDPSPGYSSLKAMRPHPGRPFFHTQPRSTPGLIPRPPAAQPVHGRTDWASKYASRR
Sequence of Ribosomal protein S6 kinase alpha-3 (Homo sapiens) (P51812 whole entry, the tested form may be a part, canonical isoform): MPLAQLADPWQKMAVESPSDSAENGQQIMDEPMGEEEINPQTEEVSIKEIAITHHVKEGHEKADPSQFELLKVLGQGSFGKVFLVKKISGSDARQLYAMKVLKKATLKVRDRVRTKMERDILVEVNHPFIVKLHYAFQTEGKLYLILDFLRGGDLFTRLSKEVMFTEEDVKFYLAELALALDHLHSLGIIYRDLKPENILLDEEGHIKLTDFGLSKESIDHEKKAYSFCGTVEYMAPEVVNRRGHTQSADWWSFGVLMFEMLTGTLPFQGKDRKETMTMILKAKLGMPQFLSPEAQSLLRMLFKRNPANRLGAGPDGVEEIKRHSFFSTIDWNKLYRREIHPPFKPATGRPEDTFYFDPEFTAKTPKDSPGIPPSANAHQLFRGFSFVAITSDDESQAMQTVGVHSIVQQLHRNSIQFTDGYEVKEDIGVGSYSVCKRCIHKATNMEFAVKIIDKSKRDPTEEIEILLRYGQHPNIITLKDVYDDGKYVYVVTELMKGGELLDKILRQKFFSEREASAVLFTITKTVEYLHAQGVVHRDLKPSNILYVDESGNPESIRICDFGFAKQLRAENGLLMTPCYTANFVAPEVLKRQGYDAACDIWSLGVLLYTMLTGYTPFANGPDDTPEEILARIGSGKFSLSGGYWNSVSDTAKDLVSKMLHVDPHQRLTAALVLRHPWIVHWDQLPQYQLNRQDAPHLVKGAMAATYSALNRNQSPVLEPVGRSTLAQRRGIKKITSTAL
Sequence of Phosphorylase b kinase gamma catalytic chain, skeletal muscle/heart isoform (Homo sapiens) (Q16816 whole entry, looked up, the tested form may be a part, canonical isoform): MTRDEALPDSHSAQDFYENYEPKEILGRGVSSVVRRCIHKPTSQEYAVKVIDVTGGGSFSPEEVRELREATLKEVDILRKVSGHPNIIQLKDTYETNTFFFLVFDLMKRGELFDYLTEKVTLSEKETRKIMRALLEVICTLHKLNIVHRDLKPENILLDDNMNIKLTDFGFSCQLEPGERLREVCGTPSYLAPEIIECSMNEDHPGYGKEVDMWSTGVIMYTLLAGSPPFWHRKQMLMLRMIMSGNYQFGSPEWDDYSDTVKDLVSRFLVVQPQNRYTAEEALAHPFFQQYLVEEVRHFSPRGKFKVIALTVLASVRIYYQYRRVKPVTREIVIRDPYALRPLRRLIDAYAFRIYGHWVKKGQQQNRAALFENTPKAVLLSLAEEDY

C=CC(=O)Nc1cc(Nc2cc(-c3cccc(NC(=O)c4ccc(C(C)(C)C)cc4)c3C)cn(C)c2=O)ccc1C(=O)N1CCOCC1
Activity [1]: 100%
Activity [2]: 84%
Activity [3]: 95%
Activity [4]: 100%
Activity [5]: 100%
Activity [6]: 100%
Activity [7]: 100%
Activity [8]: 100%
Activity [9]: 100%
Activity [10]: 100%
Activity [11]: 100%
Activity [12]: 98%
Activity [13]: 100%
Activity [14]: 89%
Activity [15]: 90%
Activity [16]: 91%
Activity [17]: 100%
Activity [18]: 100%
Activity [19]: 92%
Activity [20]: 95%
Activity [21]: 86%
Activity [22]: 100%
Activity [23]: 100%
Ki [24]: 8.9 nM
Activity [25]: 78%
